Reference: patent US10189842B2 (Agency for Science, Technology and Research, priority 2013, dated 2019)
pIC50: −log10 of the molar value.

System: HEK293-STF3A cells
Assay: STF3A assay (luciferase reporter)
Assay type: cell-based, Human
Conditions: Homo sapiens, 24 h, 1 day of treatment
Outline: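 HEK293 cells carrying the STF reporter and expressing Wnt3A, seeded 2×10^4 per well overnight, then treated 1 day with compound at final 50 μM to 1.5 nM. Luciferase activity read by luminescence after Steady-Glo reagent, 10 min at room temperature.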

Row | SMILES | pIC50
1 | Cc1cc2n(n1)CCCN2C(=O)CCC(=O)Nc1cc(-c2ccccc2)no1 [Compound 2, 4-(2-methyl-6,7-dihydropyrazolo[1,5-a]pyrimidin-4(5H)-yl)-4-oxo-N-(3-phenylisoxazol-5-yl)butanamide] | > 6.00
2 | Cc1cc2n(n1)CCCN2C(=O)CCC(=O)Nc1ccc(-c2cncc(F)c2)cn1 [Compound 115, N-(5′-fluoro-[3,3′-bipyridin]-6-yl)-4-(2-methyl-6,7-dihydropyrazolo[1,5-a]pyrimidin-4(5H)-yl)-4-oxobutanamide] | > 7.00
3 | O=C(CCC(=O)N1CCCn2nccc21)Nc1cc(-c2cccc(Cl)c2)no1 [Compound 133, N-(3-(3-chlorophenyl)isoxazol-5-yl)-4-(6,7-dihydropyrazolo[1,5-a]pyrimidin-4(5H)-yl)-4-oxobutanamide] | < 5.00
4 | Cc1cc2n(n1)CCCN2C(=O)CCC(=O)Nc1ccc(-c2csc(C)n2)cc1 [Compound 28, 4-(2-methyl-6,7-dihydropyrazolo[1,5-a]pyrimidin-4(5H)-yl)-N-(4-(2-methylthiazol-4-yl)phenyl)-4-oxobutanamide] | > 7.00
5 | Cc1cc2n(n1)CCCN2C(=O)CCC(=O)Nc1ccc(-c2cncc(C(F)(F)F)c2)cn1 [Compound 118, 4-(2-methyl-6,7-dihydropyrazolo[1,5-a]pyrimidin-4(5H)-yl)-4-oxo-N-(5′-(trifluoromethyl)-[3,3′-bipyridin]-6-yl)butanamide] | > 7.00
6 | Cc1cc2n(n1)CCCN2C(=O)CCC(=O)Nc1ccc(-c2cncc(Cl)c2)nn1 [Compound 102, N-(6-(5-chloropyridin-3-yl)pyridazin-3-yl)-4-(2-methyl-6,7-dihydropyrazolo[1,5-a]pyrimidin-4(5H)-yl)-4-oxobutanamide] | > 7.00
7 | Cc1cc2n(n1)CCCN2C(=O)CC(C)C(=O)Nc1ccc(-c2cccnc2)cn1 (centres unmarked) [Compound 147, N-([3,3′-bipyridin]-6-yl)-2-methyl-4-(2-methyl-6,7-dihydropyrazolo[1,5-a]pyrimidin-4(5H)-yl)-4-oxobutanamide] | > 7.00
8 | Cc1cc2n(n1)CCCN2C(=O)CCC(=O)Nc1ccc(-c2ccc(F)cc2)nc1 [Compound 87, N-(6-(4-fluorophenyl)pyridin-3-yl)-4-(2-methyl-6,7-dihydropyrazolo[1,5-a]pyrimidin-4(5H)-yl)-4-oxobutanamide] | > 6.00
9 | Cc1cc2n(n1)CCCN2C(=O)CCC(=O)Nc1cc(-c2cccc(Cl)c2)on1 [Compound 23, N-[5-(3-chlorophenyl)-1,2-oxazol-3-yl]-4-{2-methyl-5H,6H,7H-pyrazolo[1,5-a]pyrimidin-4-yl}-4-oxobutanamide] | > 6.00
10 | Cc1cc2n(n1)CCCN2C(=O)CCC(=O)Nc1ccc(-c2ccccc2)nc1 [Compound 43, 4-(2-methyl-6,7-dihydropyrazolo[1,5-a]pyrimidin-4(5H)-yl)-4-oxo-N-(6-phenylpyridin-3-yl)butanamide] | > 7.00
11 | Cc1cc2n(n1)CCCN2C(=O)CCC(=O)Nc1cc(-c2cc(Cl)ccn2)no1 [Compound 16, N-(3-(4-chloropyridin-2-yl)isoxazol-5-yl)-4-(2-methyl-6,7-dihydropyrazolo[1,5-a]pyrimidin-4(5H)-yl)-4-oxobutanamide] | < 5.00
12 | Cc1cc2n(n1)CCCN2C(=O)CCC(=O)Nc1cnc(-c2cccc(F)c2)cn1 [Compound 123, N-(5-(3-fluorophenyl)pyrazin-2-yl)-4-(2-methyl-6,7-dihydropyrazolo[1,5-a]pyrimidin-4(5H)-yl)-4-oxobutanamide] | > 7.00
13 | Cc1cc2n(n1)CCCN2C(=O)CCC(=O)Nc1ccc(-c2cccnc2)cc1 [Compound 35, 4-(2-methyl-6,7-dihydropyrazolo[1,5-a]pyrimidin-4(5H)-yl)-4-oxo-N-(4-(pyridin-3-yl)phenyl)butanamide] | > 7.00
14 | COc1cccc(-c2cc(NC(=O)CCC(=O)N3CCCn4nc(C)cc43)on2)c1 [Compound 10, N-[3-(3-methoxyphenyl)-1,2-oxazol-5-yl]-4-{2-methyl-5H,6H,7H-pyrazolo[1,5-a]pyrimidin-4-yl}-4-oxobutanamide] | > 5.30
15 | Cc1cc2n(n1)CCCN2C(=O)CCC(=O)Nc1ccc(-c2cccc(Cl)c2)cn1 [Compound 88] | > 7.00
16 | Cc1cccc(-c2cnc(NC(=O)CCC(=O)N3CCCn4nc(C)cc43)cn2)c1 [Compound 126, 4-(2-methyl-6,7-dihydropyrazolo[1,5-a]pyrimidin-4(5H)-yl)-4-oxo-N-(5-(m-tolyl)pyrazin-2-yl)butanamide] | > 7.00
17 | Cc1cc2n(n1)CCCN2C(=O)CCC(=O)Nc1ccc(-c2cccc(N3CCOCC3)c2)cc1 [Compound 73, 4-(2-methyl-6,7-dihydropyrazolo[1,5-a]pyrimidin-4(5H)-yl)-N-(3′-morpholinobiphenyl-4-yl)-4-oxobutanamide] | > 5.30
18 | Cc1cncc(-c2ccc(NC(=O)CCC(=O)N3CCCn4nc(C)cc43)nc2)c1 [Compound 116, 4-(2-methyl-6,7-dihydropyrazolo[1,5-a]pyrimidin-4(5H)-yl)-N-(5′-methyl-[3,3′-bipyridin]-6-yl)-4-oxobutanamide] | > 7.00

Row | SMILES | pIC50
19 | Cc1cc2n(n1)CCCN2C(=O)CCC(=O)NC1CCN(c2ccccc2)CC1 [Compound 81, 4-(2-methyl-6,7-dihydropyrazolo[1,5-a]pyrimidin-4(5H)-yl)-4-oxo-N-(1-phenylpiperidin-4-yl)butanamide] | < 5.00
20 | Cc1ccc(-c2ccc(NC(=O)CCC(=O)N3CCCn4nc(C)cc43)cn2)cn1 [Compound 113, 4-(2-methyl-6,7-dihydropyrazolo[1,5-a]pyrimidin-4(5H)-yl)-N-(6′-methyl-[2,3′-bipyridin]-5-yl)-4-oxobutanamide] | > 7.00
21 | Cc1cc2n(n1)CCCN2C(=O)CCC(=O)Nc1ccc(N2CCNCC2)cc1 [Compound 77, 4-(2-methyl-6,7-dihydropyrazolo[1,5-a]pyrimidin-4(5H)-yl)-4-oxo-N-(4-(piperazin-1-yl)phenyl)butanamide] | < 5.00
22 | Cc1cc2n(n1)CCCN2C(=O)CCC(=O)Nc1ccc(-c2ccncn2)cc1 [Compound 38, 4-(2-methyl-6,7-dihydropyrazolo[1,5-a]pyrimidin-4(5H)-yl)-4-oxo-N-(4-(pyrimidin-4-yl)phenyl)butanamide] | < 5.00
23 | Cc1cc2n(n1)CCCN2C(=O)C(C)CC(=O)Nc1cc(-c2cccc(Cl)c2)no1 (centres unmarked) [Compound 132, N-(3-(3-chlorophenyl)isoxazol-5-yl)-3-methyl-4-(2-methyl-6,7-dihydropyrazolo[1,5-a]pyrimidin-4(5H)-yl)-4-oxobutanamide] | < 5.00
24 | CC(=O)Nc1cccc(-c2ccc(NC(=O)CCC(=O)N3CCCn4nc(C)cc43)cc2)c1 [Compound 74, N-(3′-acetamido-[1,1′-biphenyl]-4-yl)-4-(2-methyl-6,7-dihydropyrazolo[1,5-a]pyrimidin-4(5H)-yl)-4-oxobutanamide] | > 5.30
25 | Cc1cc2n(n1)CCCN2C(=O)CC(C)C(=O)Nc1cc(-c2cccc(Cl)c2)no1 (centres unmarked) [Compound 159, N-(3-(3-chlorophenyl)isoxazol-5-yl)-2-methyl-4-(2-methyl-6,7-dihydropyrazolo[1,5-a]pyrimidin-4(5H)-yl)-4-oxobutanamide] | > 5.30
26 | Cc1cc2n(n1)CCCN2C(=O)CC(C)C(=O)Nc1ccc(-c2cccnc2)nc1 (centres unmarked) [Compound 145, N-([2,3′-bipyridin]-5-yl)-2-methyl-4-(2-methyl-6,7-dihydropyrazolo[1,5-a]pyrimidin-4(5H)-yl)-4-oxobutanamide] | > 7.00
27 | Cc1cc2n(n1)CC(C)CN2C(=O)CCC(=O)Nc1ccc(-c2cncc(F)c2)nn1 (centres unmarked) [Compound 167, 4-(2,6-dimethyl-6,7-dihydropyrazolo[1,5-a]pyrimidin-4(5H)-yl)-N-(6-(5-fluoropyridin-3-yl)pyridazin-3-yl)-4-oxobutanamide] | > 7.00
28 | Cc1ccc(-c2ccc(NC(=O)CCC(=O)N3CCCn4nc(C)cc43)nn2)cn1 [Compound 107, 4-(2-methyl-6,7-dihydropyrazolo[1,5-a]pyrimidin-4(5H)-yl)-N-(6-(6-methylpyridin-3-yl)pyridazin-3-yl)-4-oxobutanamide] | > 7.00
29 | Cc1cc2n(n1)CCCN2C(=O)CCC(=O)Nc1ccc(-c2cccc(F)c2)cn1 [Compound 89, N-(5-(3-fluorophenyl)pyridin-2-yl)-4-(2-methyl-6,7-dihydropyrazolo[1,5-a]pyrimidin-4(5H)-yl)-4-oxobutanamide] | > 7.00
30 | Cc1cc2n(n1)CCCN2C(=O)CCC(=O)Nc1oncc1-c1ccccc1 [Compound 4, 4-(2-methyl-6,7-dihydropyrazolo[1,5-a]pyrimidin-4(5H)-yl)-4-oxo-N-(4-phenylisoxazol-5-yl)butanamide] | < 5.00
31 | COc1cc2n(n1)CCCN2C(=O)CCC(=O)Nc1cc(-c2cccc(Cl)c2)no1 [Compound 135, N-(3-(3-chlorophenyl)isoxazol-5-yl)-4-(2-methoxy-6,7-dihydropyrazolo[1,5-a]pyrimidin-4(5H)-yl)-4-oxobutanamide] | < 5.00
32 | Cc1cc2n(n1)CCCN2C(=O)CCC(=O)Nc1ccc(-c2cnco2)cc1 [Compound 24, 4-(2-methyl-6,7-dihydropyrazolo[1,5-a]pyrimidin-4(5H)-yl)-N-(4-(oxazol-5-yl)phenyl)-4-oxobutanamide] | > 5.30
33 | Cc1cc2n(n1)CCCN2C(=O)CCC(=O)Nc1ccc(-c2cccc(C(=O)N(C)C)c2)cc1 [Compound 68, N,N-dimethyl-4′-(4-(2-methyl-6,7-dihydropyrazolo[1,5-a]pyrimidin-4(5H)-yl)-4-oxobutanamido)-[1,1′-biphenyl]-3-carboxamide] | < 5.00
34 | CCc1cc2n(n1)CCCN2C(=O)CCC(=O)Nc1cc(-c2cccc(Cl)c2)no1 [Compound 137, N-(3-(3-chlorophenyl)isoxazol-5-yl)-4-(2-ethyl-6,7-dihydropyrazolo[1,5-a]pyrimidin-4(5H)-yl)-4-oxobutanamide] | > 7.00
35 | Cc1cc2n(n1)CCCN2C(=O)CCC(=O)Nc1ccc(-c2ccc(Cl)cc2)nn1 [Compound 100, N-[6-(4-chlorophenyl)pyridazin-3-yl]-4-{2-methyl-5H,6H,7H-pyrazolo[1,5-a]pyrimidin-4-yl}-4-oxobutanamide] | > 7.00
